Assay results as given in ChEMBL document CHEMBL1144587, “Synthesis and antiviral activity of C-fluoro-branched cyclopropyl nucleosides” (Eur J Med Chem, 2007).
pEC50: −log10 of the molar value.

What was measured:
Type in all cases: functional, organism-based
[1] = system: Human immunodeficiency virus 1; assay: Antiviral activity against HIV1 in MT4 cells; settings: Human immunodeficiency virus 1, MT4
Human alphaherpesvirus 1 = assay: Antiviral activity against HSV1 in CCL81 cells; settings: Human alphaherpesvirus 1, CCL 81
Human betaherpesvirus 5 = assay: Antiviral activity against HCMV AD169; settings: Human betaherpesvirus 5, AD169
Human alphaherpesvirus 2 = assay: Antiviral activity against HSV2 in CCL81 cells; settings: Human alphaherpesvirus 2, CCL 81

pEC50 [1]	pEC50 (Human alphaherpesvirus 1)	pEC50 (Human betaherpesvirus 5)	pEC50 (Human alphaherpesvirus 2)	SMILES
9.10	–	–	–	Cc1cn([C@H]2C[C@H](N=[N+]=[N-])[C@@H](CO)O2)c(=O)[nH]c1=O [ZIDOVUDINE]
< 4.00	4.06	< 4.00	< 4.00	C[C@]1(CO)C[C@@]1(F)n1cnc2c(N)ncnc21 (racemic)
< 4.00	< 4.00	4.37	< 4.00	C[C@]1(CO)C[C@@]1(F)n1ccc(=O)[nH]c1=O (racemic)
< 4.00	< 4.00	< 4.00	< 4.00	C[C@]1(CO)C[C@]1(F)n1ccc(N)nc1=O (racemic)
4.71	< 4.00	4.97	< 4.00	C[C@]1(CO)C[C@]1(F)n1ccc(=O)[nH]c1=O (racemic)
4.19	< 4.00	< 4.00	< 4.00	C[C@]1(CO)C[C@@]1(F)n1ccc(N)nc1=O (racemic)
< 4.00	4.17	4.15	< 4.00	C[C@]1(CO)C[C@]1(F)n1cnc2c(N)ncnc21 (racemic)
4.05	< 4.00	4.29	< 4.00	Cc1cn([C@@]2(F)C[C@]2(C)CO)c(=O)[nH]c1=O (racemic)
4.46	< 4.00	< 4.00	< 4.00	Cc1cn([C@]2(F)C[C@]2(C)CO)c(=O)[nH]c1=O (racemic)

SMILES	pEC50 [1]	pEC50 (Human alphaherpesvirus 1)	pEC50 (Human betaherpesvirus 5)	pEC50 (Human alphaherpesvirus 2)
Nc1nc2c(ncn2COC(CO)CO)c(=O)[nH]1 [GANCICLOVIR]	–	5.82	6.00	5.82
